These results are taken from article PMC12097374 (Bioconjugate chemistry, 2017).

For one experiment, the system named is C6 rat glioma cells. The experiment can be described thus: Confocal cell imaging and displacement in live C6 rat glioma cells. It counts as cell-based. Particulars: 0.1 μM probe 29, 100-fold higher concentration (10 μM) of competitor.
A further experiment addresses TSPO (Rattus norvegicus, UniProt P16257). Particulars: cited from earlier work.

`CCC(C)N(C)C(=O)c1cc2ccccc2c(-c2ccccc2Cl)n1` (stereo not drawn) [PK 11195]: the “displacement of fluorescent probe 29 in C6 glioma cells” value with C6 rat glioma cells is on record as “completely displaced”.
In the case of `CCc1cc(CC)n2nc(-c3ccc(OCCF)cc3)c(CC(=O)N(CC)CC)c2n1` [VUIIS 1008, 2-(5,7-diethyl-2-(4-(2-fluoroethoxy)phenyl)-pyrazolo[1,5-a]pyrimidin-3-yl)-N,N-diethylacetamide], the “displacement of fluorescent probe 29 in C6 glioma cells” value in the experiment with C6 rat glioma cells is “completely displaced”. For the same compound, the “fold enhancement in affinity compared with DPA-714” value on TSPO was 36 fold.
